Experimental data as given in patent US11753622B2, “Medium supplement to increase the efficiency of oocyte maturation and embryo culture in vitro” (The Curators of the University of Missouri, priority 2016, dated 2023).
Marks after values point to notes of the source that are not given here.

Assays:
[1] = tested on: oocyte meiotic maturation; experiment: Kinase inhibitors in FGF2, LIF and IGF-1 supplemented medium, oocyte meiotic maturation; format: cell-based, porcine; conditions: PD173074 10 μM, JAK inhibitor I 6 μM, OSI-906 10 μM, PD0325901 10 μM
Description: FIG. 6. Supplementation of FGF2, LIF and IGF-1 (FLI) regulates the changes of MAPK1/3 activation in cumulus cells (CCs) during IVM. […] Each CC sample was pooled from 50 cumulus oocyte complexes (COCs). This experiment was replicated four times. Asterisk denotes a significant difference between control and treatment, P<0.05. […] The experiments were replicated four times with 1208 oocytes. Different letters denote significant differences, P<0.05.

porcine oocytes = experiment: Porcine oocyte in vitro maturation (IVM) in cytokine-supplemented medium, then IVF and culture to blastocyst; format: cell-based; conditions: for efficiency of producing nuclear matured (MII) oocytes / oocyte developmental competence (ability of zygotes to form blastocysts after IVF): single cytokine in IVM medium; for efficiency of producing nuclear matured (MII) oocytes: 42 hr, versus control; for oocyte developmental competence (ability of zygotes to form blastocysts after IVF): 6 days culture
Method: The individual effects of FGF2, LIF, and IGF-1 on maturation of oocytes derived from pre-pubertal pre-pubertal gilts after commercial slaughter were examined after each had been added to an otherwise standard, chemically-defined medium comprised of TCM 199 supplemented with 10 ng/ml EGF, 0.5 μg/ml LH, 0.5 μg/ml FSH, 3.05 mM glucose, 0.91 mM sodium pyruvate, 0.57 mM cysteine, 10 ng/mL gentamicin, and 0.1% polyvinyl alcohol (PVA). After 42 hr in the oocyte maturation medium with the single cytokine addition, oocytes were in vitro fertilized and the resulting zygotes were cultured under standard in vitro culture conditions for 6 days. […] (FIG. 2). Optimal concentrations of FGF2 (40 ng/ml) and LIF (20 ng/ml) were added in combination to the standard IVM medium. The combination of FGF2 and LIF improved nuclear maturation beyond that achieved with the single factors in Example 1 (Table 1). […] The effects of adding the IGF-1 at the optimal concentration of 20 ng/ml in combination with the other two cytokines to the IVM medium was then examined. The combination of all three cytokines (FGF2, LIF, and IGF-1) increased oocyte nuclear maturation to 89%, as compared to 55% in controls (FIG. 5 and Table 2, column 4). After IVF, zygotes from oocytes cultured in medium comprising FGF2, LIF, and IGF-1 advanced to the blastocyst stage more efficiently than controls (49.7% versus 38%). […] Oocytes derived from medium comprising FGF2, LIF, and IGF-1 also provided improved production of blastocysts following somatic cell nuclear transfer (SCNT), which requires removal of nuclear material from the egg followed by fusion of the enucleated oocyte with a somatic donor cell (FIG. 5). [table]

[2] = Table 1, after IVF, means ± SEM
[3] = Table 1, porcine IVM medium, FGF2 40 ng/ml, LIF 20 ng/ml, means ± SEM
[4] = Table 2, IVF embryos cultured in MU1-PZM six days, means ± SEM

Molecule	oocyte meiotic maturation [1]	efficiency of producing nuclear matured (MII) oocytes (porcine oocytes)	oocyte developmental competence (ability of zygotes to form blastocysts after IVF) (porcine oocytes)	also measured
O=C(NOC[C@H](O)CO)c1ccc(F)c(F)c1Nc1ccc(I)cc1F [PD0325901]	almost complete block of meiotic maturation	–	–	–
leukemia inhibitory factor [LIF]	–	improved	none of the cytokines improved	Blastocysts/Oocyte (%) (porcine oocytes; [2]): 19.6 ± 3.6^ab %; Blastocysts/Zygote (%) (porcine oocytes; [2]): 25.4 ± 4.0^b %; Nuclear Maturation (%) (porcine oocytes; [3]): 75.7 ± 3.1^a %
insulin-like growth factor 1 [IGF-1]	–	improved	none of the cytokines improved	Blastocysts/Oocyte (%) (porcine oocytes; [4]): 33.6 ± 5.5^b %; Blastocysts/Zygote (%) (porcine oocytes; [4]): 44.7 ± 6.7^ab %; Nuclear Maturation (%) (porcine oocytes; Table 2, TCM-199 maturation medium, FGF2 40, LIF 20, IGF-1 20 ng/ml, means ± SEM): 74.8 ± 3.6^b %; Total blastocyst cell number (porcine oocytes; Table 2, day 6 blastocysts, means ± SEM): 34.7 ± 7.8^b
JAK inhibitor I	more moderate declines	–	–	–
C[C@]1(O)C[C@@H](c2nc(-c3ccc4ccc(-c5ccccc5)nc4c3)c3c(N)nccn32)C1 [OSI-906]	more moderate declines	–	–	–
fibroblast growth factor 2 [FGF2]	–	improved	none of the cytokines improved	Blastocysts/Oocyte (%) (porcine oocytes; [2]): 25.6 ± 3.6^ab %; Blastocysts/Zygote (%) (porcine oocytes; [2]): 35.1 ± 4.9^a %; Nuclear Maturation (%) (porcine oocytes; [3]): 73.2 ± 3.4^a %
CCN(CC)CCCCNc1ncc2cc(-c3cc(OC)cc(OC)c3)c(NC(=O)NC(C)(C)C)nc2n1 [PD173074]	more moderate declines	–	–	–
